Source: DBAASP
In brackets after ≈: the same amount, converted by molar mass.

Experiments:
Experiment in all cases: ≥ marks a high value that may be exact or a test limit, other limits are often not marked, values filed in µg/mL are converted to µM
[1] = test system: Escherichia coli ATCC 25922
Escherichia coli D21 = test system: Escherichia coli D21
[2] = test system: Escherichia coli ATCC BAA-3051
[3] = test system: Bacillus subtilis ATCC 6051
[4] = test system: Staphylococcus aureus ATCC 29213
[5] = test system: Acinetobacter calcoaceticus Ac11
[6] = test system: Salmonella enterica subsp. enterica serovar Typhimurium LT2
[7] = test system: Pseudomonas aeruginosa ATCC 27853
[8] = test system: Micrococcus luteus ATCC 9341
Bacillus megaterium Bm11 = test system: Bacillus megaterium Bm11
[9] = test system: Salmonella typhimurium SL1344
[10] = test system: Enterococcus faecalis ATCC 29212
[11] = test system: Staphylococcus aureus ATCC 33591
[12] = test system: Staphylococcus epidermidis
[13] = test system: Pseudomonas aeruginosa 1412
Escherichia coli 1334 = test system: Escherichia coli 1334
[14] = test system: Staphylococcus aureus ATCC 2592
[15] = test system: Pseudomonas aeruginosa 1411
[16] = test system: Candida albicans ATCC 2002
Escherichia coli 1342 = test system: Escherichia coli 1342
Candida glabrata 0902 = test system: Candida glabrata 0902
[17] = test system: Staphylococcus aureus 1349
[18] = test system: Staphylococcus aureus 1303
Staphylococcus aureus = test system: Staphylococcus aureus
[19] = test system: Pseudomonas aeruginosa 1413
[20] = test system: Cutibacterium acnes ATCC 11827
Nocardia asteroides = test system: Nocardia asteroides
[21] = test system: Psychrobacter faecalis X29
[22] = test system: Staphylococcus aureus ATCC 25923
[23] = test system: Enterococcus faecalis 981
Candida glabrata 090902 = test system: Candida glabrata 090902
Escherichia coli W160-37 = test system: Escherichia coli W160-37
[24] = test system: Candida albicans ATCC 37092

## CC[C@H](C)[C@H](N=C(O)[C@H](CC(C)C)N=C(O)[C@H](C)N=C(O)[C@H](Cc1ccccc1)N=C(O)[C@H](Cc1ccccc1)N=C(O)CN)C(=O)N1CCC[C@H]1C(O)=N[C@@H](CCCCN)C(O)=N[C@H](C(O)=N[C@H](C(O)=N[C@@H](CO)C(O)=N[C@@H](CO)C(=O)N1CCC[C@H]1C(O)=N[C@@H](CC(C)C)C(O)=N[C@@H](Cc1ccccc1)C(O)=N[C@@H](CCCCN)C(O)=N[C@H](C(O)=N[C@@H](CC(C)C)C(O)=N[C@@H](CC(C)C)C(O)=N[C@@H](CO)C(O)=N[C@@H](C)C(O)=N[C@H](C(O)=NCCN)C(C)C)[C@@H](C)O)[C@@H](C)CC)[C@@H](C)CC [GFFALIPKIISSPLFKTLLSAV]
[1]
  MIC: 13.2 µM (≈ 31.9 µg/mL)
Escherichia coli D21
  MIC: ≥ 100 µM
[2]
  MIC: 13.2 µM (≈ 31.9 µg/mL)
[3]
  MIC: 20 µM (≈ 48.1 µg/mL)
[4]
  MIC: 3.3 µM (≈ 7.94 µg/mL)
[5]
  MIC: ≥ 100 µM
[6]
  MIC: ≥ 100 µM
[7]
  MIC: > 100 µM
[8]
  MIC: ≥ 100 µM
Bacillus megaterium Bm11
  MIC: 6.2 µM (≈ 14.9 µg/mL)
[9]
  MIC: ≥ 52.9 µM
[10]
  MIC: 3.3 µM (≈ 7.94 µg/mL)
[11]
  MIC: 3.3 µM (≈ 7.94 µg/mL)

## CC[C@H](C)[C@H](NC(=O)[C@H](Cc1cnc[nH]1)NC(=O)[C@H](CO)NC(=O)CNC(=O)[C@H](CO)NC(=O)CNC(=O)[C@@H](NC(=O)[C@H](CO)NC(=O)[C@H](CCCN=C(N)N)NC(=O)[C@H](CC(C)C)NC(=O)[C@H](CCCCN)NC(=O)[C@H](CCC(N)=O)NC(=O)[C@H](CCCCN)NC(=O)[C@H](CC(C)C)NC(=O)[C@H](CCC(N)=O)NC(=O)[C@@H]1CSSC[C@H](NC(=O)[C@H](CCCCN)NC(=O)CN)C(=O)N[C@@H](CC(N)=O)C(=O)N[C@@H](C(C)C)C(=O)N[C@@H](CC(C)C)C(=O)N1)[C@@H](C)CC)C(=O)NCC(=O)N[C@@H](CO)C(=O)N[C@H](C(=O)N[C@H](C(=O)N[C@@H](CC(C)C)C(=O)N1CCC[C@H]1C(=O)N[C@@H](CCCN=C(N)N)C(=O)NCC(=O)O)C(C)C)C(C)C [GKCNVLCQLKQKLRSIGSGSHIGSVVLPRG]
[1]
  MIC: 2.27 µM (≈ 7.11 µg/mL)
[12]
  MIC: 4.54 µM (≈ 14.2 µg/mL)
[13]
  MIC: 9.08 µM (≈ 28.5 µg/mL)
Escherichia coli 1334
  MIC: 4.54 µM (≈ 14.2 µg/mL)
[14]
  MIC: 2.27 µM (≈ 7.11 µg/mL)
[7]
  MIC: 4.54 µM (≈ 14.2 µg/mL)
[15]
  MIC: 4.54 µM (≈ 14.2 µg/mL)
[16]
  MIC: 1.13 µM (≈ 3.54 µg/mL)
Escherichia coli 1342
  MIC: 9.08 µM (≈ 28.5 µg/mL)
Candida glabrata 0902
  MIC: 4.54 µM (≈ 14.2 µg/mL)
[17]
  MIC: 9.08 µM (≈ 28.5 µg/mL)
[18]
  MIC: 4.54 µM (≈ 14.2 µg/mL)
Staphylococcus aureus
  MIC: 2.27 µM (≈ 7.11 µg/mL)
[19]
  MIC: 4.54 µM (≈ 14.2 µg/mL)
[20]
  MIC: 18.2 µM (≈ 57 µg/mL)

## CC[C@H](C)[C@H](NC(=O)[C@H](CC(C)C)NC(=O)CNC(=O)[C@@H](NC(=O)[C@@H](NC(=O)[C@@H](N)Cc1ccccc1)[C@@H](C)CC)[C@@H](C)O)C(=O)N[C@@H](CO)C(=O)NCC(=O)N[C@@H](CC(C)C)C(=O)N[C@@H](CCSC)C(=O)N[C@@H](CCCCN)C(=O)N[C@@H](C)C(=O)N[C@@H](CC(C)C)C(N)=O [FITGLISGLMKAL]
Nocardia asteroides
  MIC: 12.5 µM (≈ 17 µg/mL)
[21]
  MIC: ≥ 200 µM
[22]
  MIC: 12.5 µM (≈ 17 µg/mL)
[23]
  MIC: 25 µM (≈ 34.1 µg/mL)
Candida glabrata 090902
  MIC: ≥ 100 µM

## CC[C@H](C)[C@H](NC(=O)[C@H](Cc1c[nH]c2ccccc12)NC(=O)[C@H](CCCCN)NC(=O)[C@H](CO)NC(=O)[C@H](CC(C)C)NC(=O)[C@H](Cc1ccccc1)NC(=O)[C@H](CCCCN)NC(=O)[C@H](CC(C)C)NC(=O)[C@H](CC(C)C)NC(=O)[C@H](CCCCN)NC(=O)[C@@H]1CCCN1)C(=O)NCC(=O)O [PKLLKFLSKWIG]
Escherichia coli W160-37
  MIC: 24 µM (≈ 34.3 µg/mL)
Staphylococcus aureus
  MIC: 14 µM (≈ 20 µg/mL)

## CC[C@H](C)[C@H](NC(=O)[C@H](CCCN=C(N)N)NC(=O)[C@@H](N)CCCN=C(N)N)C(=O)N[C@@H](CCCN=C(N)N)C(=O)N1CCC[C@H]1C(=O)N[C@@H](CCCN=C(N)N)C(=O)N1CCC[C@H]1C(=O)O [RRIRPRP]
[1]
  MIC: > 500 µM
[4]
  MIC: > 500 µM
[24]
  MIC: ≥ 500 µM
